Test system: A2780 cells
Experiment: Lentiviral transduction of adherent A2780 cells, Luciferase-expressing lentivirus, luminescence (RLU)
Assay type: cell-based, human
Procedure: Human ovarian carcinoma cells A2780 (Sigma Aldrich) and human lung adenocarcinoma cells NCl H1838 (ATTC) were grown in RPMI 1640 medium supplemented with 10% (vol/vol) fetal calf serum (FCS; Biochrom) and 2 mM L-glutamine (PAN Biotech).
The lentiviral transduction vectors p-Ubic-Luc2-IRES-Puro and p-CMV-copGFP-IRES-Puro allow expression of Luciferase driven by Ubic promoter or copGFP by CMV promoter, respectively. Replication-defective lentiviral particles were produced by transient co-transduction of HEK293-TN cells in a T75 flask with 10 μg of packaging plasmids pMDL, pVSV-G, pRev (Roche) and 2 μg of transduction vector using Lipofectamine 2000 (Life Technologies) as transduction reagent according to the manufacturer's instructions. […]
To quantify total viral transgene expression by Luciferase, 100 μl Steady-Glo reagent (Promega) was added to the cells 3 days after viral transduction. The plate with the cells was put into a Tecan Infinite M200 plate reader and shaken for 30 seconds. After incubation for 10 minutes at room temperature, luminescence signal was measured by the plate reader. […]
As controls virus only (with H2O instead of adjuvant), or […] Polybrene was added to the wells before transduction. […] Three days post transduction the efficiency of transduction was assessed by measuring luciferase activity on a plate reader. Results are presented in relative luminescence units (RLU). […]

Substance: Protamine sulfate
- increase of total transgene expression compared to virus only (5 μg/ml Protamine sulfate alone): 1.14 fold
- increase of total transgene expression compared to virus only (40 μg/ml Protamine sulfate alone): 2.08 fold

From patent publication US20220088225A1, “VIRAL TRANSDUCTION USING POLOXAMINES” (SIRION Biotech GmbH, priority 2018, published 2022)
